Laboratory results as given in patent US12077503B2, “Substituted cyclic amides and their use as herbicides” (FMC CORPORATION, priority 2015, dated 2024).

Key:
Assay type in all cases: in vivo
[1] = tested on: corn (Zea mays); test: Test G Pre-Emergence Protocol; details: Zea mays, pre-emergence, 312 h, evaluated after 13 days; for plant injury at 15.625 g/ha: 15.625 g ai/ha; for plant injury at 15.625 g/ha / plant injury at 250 g/ha: read-out: Corn damage rating (100=total damage to plant; 0=no damage to plant); for plant injury at 62.5 g/ha: 62.5 g ai/ha, 100=total damage to plant, 0=no damage to plant, read-out: plant damage rating, Corn; for plant injury at 250 g/ha: 250 g ai/ha
In short: (§1)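 Test compound in 0.5% Tween 20 acetone/water (50:50) was applied at three rates (15.625, 62.5, 250 g/ha) to soil sown one day earlier. After 13 days plants were scored for injury, where 0 means unaffected and 100 means completely damaged.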

[2] = tested on: giant foxtail (Setaria faberi); test: Test G Pre-Emergence Protocol; details: Setaria faberi, pre-emergence, 312 h, evaluated after 13 days; for pest or weed control at 15.625 g/ha: 15.625 g ai/ha; for pest or weed control at 15.625 g/ha / pest or weed control at 250 g/ha: read-out: Foxtail, Giant damage rating (100=total damage to plant; 0=no damage to plant); for pest or weed control at 62.5 g/ha: 62.5 g ai/ha, 100=total damage to plant, 0=no damage to plant, read-out: plant damage rating, Foxtail, Giant; for pest or weed control at 250 g/ha: 250 g ai/ha
In short: as §1

[3] = tested on: redroot pigweed (Amaranthus retroflexus); test: Test G Pre-Emergence Protocol; details: Amaranthus retroflexus, pre-emergence, 312 h, evaluated after 13 days; for pest or weed control at 15.625 g/ha: 15.625 g ai/ha; for pest or weed control at 15.625 g/ha / pest or weed control at 250 g/ha: read-out: Pigweed, Redroot damage rating (100=total damage to plant; 0=no damage to plant); for pest or weed control at 62.5 g/ha: 62.5 g ai/ha, 100=total damage to plant, 0=no damage to plant, read-out: plant damage rating, Pigweed, Redroot; for pest or weed control at 250 g/ha: 250 g ai/ha
In short: as §1

[4] = tested on: barnyardgrass (Echinochloa crus-galli); test: Test G Pre-Emergence Protocol; details: Echinochloa crus-galli, pre-emergence, 312 h, evaluated after 13 days; for pest or weed control at 15.625 g/ha: 15.625 g ai/ha, read-out: Barnyard grass damage rating (100=total damage to plant; 0=no damage to plant); for pest or weed control at 62.5 g/ha: 62.5 g ai/ha, 100=total damage to plant, 0=no damage to plant, read-out: plant damage rating, Barnyardgrass; for pest or weed control at 250 g/ha: 250 g ai/ha, read-out: Barnyardgrass damage rating (100=total damage to plant; 0=no damage to plant)
In short: as §1

[5] = tested on: velvetleaf (Abutilon theophrasti); test: Test G Pre-Emergence Protocol; details: Abutilon theophrasti, pre-emergence, 312 h, evaluated after 13 days; for pest or weed control at 15.625 g/ha: 15.625 g ai/ha; for pest or weed control at 15.625 g/ha / pest or weed control at 250 g/ha: read-out: Velvetleaf damage rating (100=total damage to plant; 0=no damage to plant); for pest or weed control at 62.5 g/ha: 62.5 g ai/ha, 100=total damage to plant, 0=no damage to plant, read-out: plant damage rating, Velvetleaf; for pest or weed control at 250 g/ha: 250 g ai/ha
In short: as §1

[6] = tested on: ivy-leaved morning glory (Ipomoea hederacea); test: Test G Pre-Emergence Protocol; details: Ipomoea, pre-emergence, 312 h, evaluated after 13 days; for pest or weed control at 15.625 g/ha: 15.625 g ai/ha, read-out: Morning-glory, Ivy-leaved damage rating (100=total damage to plant; 0=no damage to plant); for pest or weed control at 62.5 g/ha: 62.5 g ai/ha, 100=total damage to plant, 0=no damage to plant, read-out: plant damage rating, Morningglory, Ivy-leaved; for pest or weed control at 250 g/ha: 250 g ai/ha, read-out: Morningglory, Ivy-leaved damage rating (100=total damage to plant; 0=no damage to plant)
In short: as §1

[7] = tested on: corn (Zea mays); test: Test G Post-Emergence Protocol; details: Zea mays, post-emergence, 312 h; for plant injury at 15.625 g/ha: 15.625 g ai/ha, evaluated after 13 days (100=total damage to plant; 0=no damage to plant), read-out: Corn damage rating; for plant injury at 62.5 g/ha: 62.5 g ai/ha, read-out: Corn damage rating (100=total damage to plant; 0=no damage to plant); for plant injury at 62.5 g/ha / plant injury at 250 g/ha: evaluated after 13 days; for plant injury at 250 g/ha: 250 g ai/ha, read-out: damage to plant, Corn (100=total damage to plant; 0=no damage to plant)
In short: (§2)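 Eight days post-sowing, plants received a spray of test compound (acetone/water 50:50, 0.5% Tween 20) at 15.625, 62.5 or 250 g/ha. Glasshouse regime thereafter: 24/16 °C, 14 h light, 65% humidity. Assessment after 13 days on a 0–100 damage scale.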

[8] = tested on: giant foxtail (Setaria faberi); test: Test G Post-Emergence Protocol; details: Setaria faberi, post-emergence, 312 h; for pest or weed control at 15.625 g/ha: 15.625 g ai/ha, evaluated after 13 days (100=total damage to plant; 0=no damage to plant), read-out: Foxtail, Giant damage rating; for pest or weed control at 62.5 g/ha: 62.5 g ai/ha, read-out: Foxtail, Giant damage rating (100=total damage to plant; 0=no damage to plant); for pest or weed control at 62.5 g/ha / pest or weed control at 250 g/ha: evaluated after 13 days; for pest or weed control at 250 g/ha: 250 g ai/ha, read-out: damage to plant, Foxtail, Giant (100=total damage to plant; 0=no damage to plant)
In short: as §2

[9] = tested on: redroot pigweed (Amaranthus retroflexus); test: Test G Post-Emergence Protocol; details: Amaranthus retroflexus, post-emergence, 312 h; for pest or weed control at 15.625 g/ha: 15.625 g ai/ha, evaluated after 13 days (100=total damage to plant; 0=no damage to plant), read-out: Pigweed, Redroot damage rating; for pest or weed control at 62.5 g/ha: 62.5 g ai/ha, read-out: Pigweed, Redroot damage rating (100=total damage to plant; 0=no damage to plant); for pest or weed control at 62.5 g/ha / pest or weed control at 250 g/ha: evaluated after 13 days; for pest or weed control at 250 g/ha: 250 g ai/ha, read-out: damage to plant, Pigweed, Redroot (100=total damage to plant; 0=no damage to plant)
In short: as §2

[10] = tested on: barnyardgrass (Echinochloa crus-galli); test: Test G Post-Emergence Protocol; details: Echinochloa crus-galli, post-emergence, 312 h; for pest or weed control at 15.625 g/ha: 15.625 g ai/ha, evaluated after 13 days (100=total damage to plant; 0=no damage to plant), read-out: Barnyardgrass damage rating; for pest or weed control at 62.5 g/ha: 62.5 g ai/ha, read-out: Barnyardgrass damage rating (100=total damage to plant; 0=no damage to plant); for pest or weed control at 62.5 g/ha / pest or weed control at 250 g/ha: evaluated after 13 days; for pest or weed control at 250 g/ha: 250 g ai/ha, read-out: damage to plant, Barnyardgrass (100=total damage to plant; 0=no damage to plant)
In short: as §2

[11] = tested on: velvetleaf (Abutilon theophrasti); test: Test G Post-Emergence Protocol; details: Abutilon theophrasti, post-emergence, 312 h; for pest or weed control at 15.625 g/ha: 15.625 g ai/ha, evaluated after 13 days (100=total damage to plant; 0=no damage to plant), read-out: Velvetleaf damage rating; for pest or weed control at 62.5 g/ha: 62.5 g ai/ha, read-out: Velvetleaf damage rating (100=total damage to plant; 0=no damage to plant); for pest or weed control at 62.5 g/ha / pest or weed control at 250 g/ha: evaluated after 13 days; for pest or weed control at 250 g/ha: 250 g ai/ha, read-out: damage to plant, Velvetleaf (100=total damage to plant; 0=no damage to plant)
In short: as §2

[12] = tested on: ivy-leaved morning glory (Ipomoea hederacea); test: Test G Post-Emergence Protocol; details: Ipomoea, post-emergence, 312 h; for pest or weed control at 15.625 g/ha: 15.625 g ai/ha, evaluated after 13 days (100=total damage to plant; 0=no damage to plant), read-out: Morningglory, Ivy-leaved damage rating; for pest or weed control at 62.5 g/ha: 62.5 g ai/ha, read-out: Morningglory, Ivy-leaved damage rating (100=total damage to plant; 0=no damage to plant); for pest or weed control at 62.5 g/ha / pest or weed control at 250 g/ha: evaluated after 13 days; for pest or weed control at 250 g/ha: 250 g ai/ha, read-out: damage to plant, Morningglory, Ivy-leaved (100=total damage to plant; 0=no damage to plant)
In short: as §2

Structure (SMILES)	plant injury at 15.625 g/ha [1] [%]	plant injury at 62.5 g/ha [1] [%]	plant injury at 250 g/ha [1] [%]	pest or weed control at 15.625 g/ha [2] [%]	pest or weed control at 62.5 g/ha [2] [%]	pest or weed control at 250 g/ha [2] [%]	pest or weed control at 15.625 g/ha [3] [%]	pest or weed control at 62.5 g/ha [3] [%]	pest or weed control at 250 g/ha [3] [%]	pest or weed control at 15.625 g/ha [4] [%]	pest or weed control at 62.5 g/ha [4] [%]	pest or weed control at 250 g/ha [4] [%]	pest or weed control at 15.625 g/ha [5] [%]	pest or weed control at 62.5 g/ha [5] [%]	pest or weed control at 250 g/ha [5] [%]	pest or weed control at 15.625 g/ha [6] [%]	pest or weed control at 62.5 g/ha [6] [%]	pest or weed control at 250 g/ha [6] [%]	plant injury at 15.625 g/ha [7] [%]	plant injury at 62.5 g/ha [7] [%]	other results
Cc1cnc(NC(=O)[C@@H]2C(=O)N(C)C[C@H]2c2ccc(C(F)(F)F)cc2)nn1 (racemic) [Compound 1508]	0	0	0	0	0	0	0	0	0	0	0	0	0	0	0	0	0	0	0	0	plant injury at 250 g/ha [7]: 0%; pest or weed control at 15.625 g/ha [8]: 0%; pest or weed control at 62.5 g/ha [8]: 0%; pest or weed control at 250 g/ha [8]: 0%; pest or weed control at 15.625 g/ha [9]: 0%; pest or weed control at 62.5 g/ha [9]: 0%; pest or weed control at 250 g/ha [9]: 0%; pest or weed control at 15.625 g/ha [10]: 0%; pest or weed control at 62.5 g/ha [10]: 0%; pest or weed control at 250 g/ha [10]: 0%; pest or weed control at 15.625 g/ha [11]: 0%; pest or weed control at 62.5 g/ha [11]: 0%; pest or weed control at 250 g/ha [11]: 0%; pest or weed control at 15.625 g/ha [12]: 0%; pest or weed control at 62.5 g/ha [12]: 0%; pest or weed control at 250 g/ha [12]: 0%
CN1C[C@H](c2ccc(C(F)(F)F)cc2)[C@@H](C(=O)Nc2ncccc2[N+](=O)[O-])C1=O (racemic) [Compound 1431]	0	0	0	0	0	0	0	0	0	0	0	0	0	0	0	0	0	0	0	0	plant injury at 250 g/ha [7]: 0%; pest or weed control at 15.625 g/ha [8]: 0%; pest or weed control at 62.5 g/ha [8]: 0%; pest or weed control at 250 g/ha [8]: 0%; pest or weed control at 15.625 g/ha [9]: 0%; pest or weed control at 62.5 g/ha [9]: 0%; pest or weed control at 250 g/ha [9]: 40%; pest or weed control at 15.625 g/ha [10]: 0%; pest or weed control at 62.5 g/ha [10]: 0%; pest or weed control at 250 g/ha [10]: 0%; pest or weed control at 15.625 g/ha [11]: 0%; pest or weed control at 62.5 g/ha [11]: 0%; pest or weed control at 250 g/ha [11]: 10%; pest or weed control at 15.625 g/ha [12]: 0%; pest or weed control at 62.5 g/ha [12]: 0%; pest or weed control at 250 g/ha [12]: 0%
